According to patent publication US7625891B2, “Heterocylic antiviral compounds” (Roche Palo Alto LLC, priority 2007, dated 2009):

B1: RANTES: CC chemokine, naturally occurring ligand that can stimulate the CCR5 receptor (protein, UniProt P13501 24-91, looked up)
C-C motif chemokine 5: SPYSSDTTPCCFAYIARPLPRAHIKEYFYTSGKCSNPAVVFVTRKNRQVCANPEKKWVREYINSLEMS

How the values were obtained:
CCR5 [1] = biological target: T1, CCR5 (Homo sapiens, UniProt P51681); test: CCR5-mediated CCF (cell-cell fusion) assay, Hela-R5 / CEM-NKr-CCR5-Luc, luciferase readout; assay type: cell-based; design: host or cells: CEM-NKr-CCR5-Luc cells; settings: 24 hrs co-culture
T1 sequence (P51681 whole entry, the tested form may be a part): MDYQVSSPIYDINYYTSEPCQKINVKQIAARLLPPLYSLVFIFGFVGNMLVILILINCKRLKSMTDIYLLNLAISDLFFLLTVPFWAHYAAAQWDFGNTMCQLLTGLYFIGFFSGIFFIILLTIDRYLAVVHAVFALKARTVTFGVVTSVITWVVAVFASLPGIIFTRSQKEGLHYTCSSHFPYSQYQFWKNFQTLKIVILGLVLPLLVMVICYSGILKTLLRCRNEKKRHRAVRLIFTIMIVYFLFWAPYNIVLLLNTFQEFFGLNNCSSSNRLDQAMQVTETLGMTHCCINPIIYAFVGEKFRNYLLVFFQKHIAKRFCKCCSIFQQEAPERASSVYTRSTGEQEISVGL
Method: The capacity for novel compounds of the present invention to bind to the CCR5 receptor and thereby antagonize CCR5 function can be evaluated with assay systems known in the art. The capacity of compounds of the present invention to inhibit infection of CD4^+/CCR5^+ expressing cells can be determined using a cell-cell fusion assay as described in example 8 or an antiviral assay as described in example 9.
CCF assay was performed as described before (C. Ji, J. Zhang, N. Cammack and S. Sankuratri, J. Biomol. Screen. 2006 11(6):652-663). Hela-R5 cells (express gp160 from R5-tropic virus and HIV-1 Tat) were plated in 384 well white culture plates (BD Bioscience, Palo Alto, Calif.) at […] per well in phenol red-free Dulbecco's Modified Eagle Medium (DMEM) supplemented with 10% FBS, 1× Pen-Strep, 300 μg/mL G418, 100 μg/mL hygromycin, and 1 μg/mL Doxycycline (Dox) (BD Bioscience, Palo Alto, Calif.), using Multimek (Beckman, Fullerton, Calif.) and incubated at 37° C. overnight to induce the expression of gp160. Ten μL diluted compounds in medium containing 5% DMSO were added to the cells, followed by the addition of CEM-NKr-CCR5-Luc (obtained from NIH AIDS Research & Reference Reagents Program) that expresses CD4 and CCR5 and carries a […] long terminal repeat (LTR)-driven luciferase reporter gene at 1.5×10^4 cells/15 μL/well and incubated for 24 hrs. At the end of co-culture, 15 μL of Steady-Glo luciferase substrate was added into each well, and the cultures were sealed and gently shaken for 45 min. The luciferase activity were measured for 10 sec per well as luminescence by using 16-channel TopCount NXT (PerkinElmer, Shelton, CT) with 10 min dark adaptation and the readout is count per second (CPS). For the drug interaction experiments, small molecule compounds or antibodies were serially diluted in serum-free and phenol red-free RPMI containing 5% DMSO (CalBiochem, La Jolla, Calif.) and 1× Pen-Strep. Five μL each of the two diluted compound or mAb to be tested for drug-drug interactions were added to the Hela-R5 cells right before the addition of target cells.

NLBal pseudotyped HIV-1 = test: microbe, parasite or virus in culture; assay type: cell-based; settings: Human immunodeficiency virus 1, JC53BL, 72 h
Method: The sensitivity of a recombinant HIV-1 virus pseudotyped with the envelope proteins of the CCR5-tropic virus NLBal to test compounds was determined in a Luciferase reporter assay using JC53BL cells. NLBal pseudotyped HIV-1 was generated by calcium phosphate transfection of 293T cells (ATCC) with equal amounts of DNA of an envelope-deleted HIV-1 plasmid and of a NLBal envelope expression plasmid. The media (DMEM, 10% fetal bovine serum, 1% Penicillin/streptomycin, 1% Glutamine, all Gibco) was changed 16 h post-transfection and virus containing supernatant was harvested 48 h post-transfection. To determine the sensitivity of NLBal pseudotyped HIV-1, 25.000 JC53BL cells (NIH AIDS Reagent Program) were infected with NLBal pseudotyped HIV-1 in presence of a drug gradient in white 96 well plates (Greiner Bio-one). The volume was adjusted to 200 μL using assay media (DMEM, 10% fetal bovine serum, 1% Penicillin/streptomycin, 1% Glutamine). After incubation at 37° C., 90% relative humidity, 5% CO2 for 3 days, 50 μL of Steady-Glo® Luciferase reagent (Promega) was added, incubated for 5 min at RT and luminescence was measured using a luminometer (Luminoskan, Thermo). The 50% and 90% inhibitory concentrations were calculated using Microsoft XL Fit 4 software.

CCR5 [2] = biological target: T1, CCR5; test: Human CCR5 receptor-ligand binding assay (125I RANTES, CHO-Gα16-hCCR5 cells); design: expressed in transfected cells
Method: The construct was transfected into CHO-Gα16 cells by using Fugene Reagent (Roche).
Adherent cells in […] tissue culture flask (ca. 90% confluent) were harvested using 1 mM EDTA in PBS (phosphate-buffered saline) without Ca^2+ and Mg^2+. Cells were washed twice with PBS containing no Ca^2+ and Mg^2+.
Eighty μl CHO-Gα16-hCCR5 (1×10^6/mL) cells were added to 96 well plates.
The compound dilutions were made in PBS, 1% BSA. Total reaction volume was 100 μl per well. The test compounds were added to the cells prior to the addition of radioligand.
After incubation, the cells were harvested onto GF/C filter plates using Packard cell harvester. Filters were pretreated with 0.3% PEI/0.2% BSA for 30 min. The filter plate was washed rapidly 5 times with 25 mM HEPES, 500 mM NaCl, 1 mM CaCl2 and 5 mM MgCl2 adjusted to pH 7.1. Plates were dried in oven (70° C.) for 20 min, added with 40 μl scintillation fluid and sealed with Packard TopSeal-A. Packard Top Count was used to measure of the radioactivity for 1 min per well.
Total binding was determined with control wells added with radioisotope and buffer and the non-specific binding was determined using an excess cold RANTES to some of the control wells. Specific binding was determined by subtracting the non-specific form total binding. […] IC50 values were determined using varying concentrations of the test ligand in triplicates and the data was analyzed using GraphPad Prism (GraphPad, San Diego, Calif.).

[3] = tested on: collagen-induced arthritis; settings: collagen-induced arthritis model; cited from earlier work
HIV = settings: cited from earlier work
[4] = specific 125I RANTES binding, CHO-Gα16-hCCR5 cells, read-out: IC50

| Molecule | IC50 (CCR5 [1]) [nM] | IC50 (NLBal pseudotyped HIV-1) [nM] | IC50 (CCR5 [2]; [4]) [nM] | other results |
| --- | --- | --- | --- | --- |
| CCCCC1CN(CC2CCCN(C(C)=O)C2)C(=O)OC12CCN(C1(C)CCN(C(=O)c3c(C)ncnc3C)CC1)CC2 (stereo not shown) [III-2] | 17.4 | – | – | – |
| CCCC[C@H]1CN(C[C@H]2[C@@H]3CN(C(=O)OC)C[C@@H]32)C(=O)OC12CCN(C1(C)CCN(C(=O)c3c(C)noc3C(F)(F)F)CC1)CC2 [III-20] | < 2.5 | 3 | 14 | – |
| Cc1ccc(-c2ccc3c(c2)C=C(C(=O)Nc2ccc(C[N+](C)(C)C4CCOCC4)cc2)CCC3)cc1.[Cl-] [TAK-779] | – | – | – | incidence and severity of arthritis [3]: reduce both the incidence and severity of arthritis; infiltration of inflammatory CCR5+ T-cells into the joint [3]: inhibited |
| CCCC[C@H]1CN(CC2CCN(CC(F)F)CC2)C(=O)OC12CCN(C1(C)CCN(C(=O)c3c(C)cc(C#N)nc3C)CC1)CC2 [III-12] | – | – | – | IC50 (CCR5 [2]): 49.4 nM |
| CCCC[C@H]1CN(C[C@H]2COCCO2)C(=O)OC12CCN(C1(C)CCN(C(=O)c3c(C)cc(C#N)nc3C)CC1)CC2 [II-10] | 1 | 2.6 | 17.2 | – |
| CCCC[C@H]1CN(CC2CCN(S(C)(=O)=O)CC2)C(=O)OC12CCN(C1(C)CCN(C(=O)c3c(C)noc3C(F)(F)F)CC1)CC2 [III-23] | < 2.5 | 6 | 38.8 | – |
| CCCC[C@H]1CN(CC2COC3OCCC23)C(=O)OC12CCN(C1(C)CCN(C(=O)c3c(C)ncnc3C)CC1)CC2 (single isomer, unassigned) [II-6] | – | – | 38 | – |
| CCCCC1CN(C[C@H]2CC[C@@H](OCOC)CC2)C(=O)OC12CCN(C1(C)CCN(C(=O)c3c(C)ncnc3C)CC1)CC2 (stereo partly drawn) [Compound I-8, 5-Butyl-9-[1-(4,6-dimethyl-pyrimidine-5-carbonyl)-4-methyl-piperidin-4-yl]-3-(cis-4-methoxymethoxy-cyclohexylmethyl)-1-oxa-3,9-diaza-spiro[5.5]undecan-2-one] | – | 5.2 | – | – |
| CCCCC1CN(C[C@H]2CC[C@H](OC)CC2)C(=O)OC12CCN(C1(C)CCN(C(=O)c3c(C)ncnc3C)CC1)CC2 (stereo partly drawn) [Compound I-3, 5-Butyl-9-[1-(4,6-dimethyl-pyrimidine-5-carbonyl)-4-methyl-piperidin-4-yl]-3-(trans-4-methoxy-cyclohexylmethyl)-1-oxa-3,9-diaza-spiro[5.5]undecan-2-one] | – | – | – | melting point: 150.8 to 152.9 °C |
| CCCCC1CN(CC2CCN(C(C)=O)CC2)C(=O)OC12CCN(C1(C)CCN(C(=O)c3c(C)ncnc3C)CC1)CC2 (stereo not shown) [III-1, 3-(1-Acetyl-piperidin-4-ylmethyl)-5-butyl-9-[1-(4,6-dimethyl-pyrimidine-5-carbonyl)-4-methyl-piperidin-4-yl]-1-oxa-3,9-diaza-spiro[5.5]undecan-2-one] | 25.2 | – | – | – |
| CCCC[C@H]1CN(CC2CCN(C(=O)OC)CC2)C(=O)OC12CCN(C1(C)CCN(C(=O)c3c(C)ncnc3C)CC1)CC2 [III-6] | – | – | 46.5 | – |
| CCCC[C@H]1CN(C2CCC(F)(F)CC2)C(=O)OC12CCN(C1(C)CCN(C(=O)c3c(C)ncnc3C)CC1)CC2 [IV-7, (S)-5-Butyl-3-(4,4-difluoro-cyclohexyl)-9-[1-(4,6-dimethyl-pyrimidine-5-carbonyl)-4-methyl-piperidin-4-yl]-1-oxa-3,9-diaza-spiro[5.5]undecan-2-one] | – | – | 19.2 | – |
| CCCC[C@H]1CN(C[C@H]2[C@@H]3COC[C@@H]32)C(=O)OC12CCN(C1(C)CCN(C(=O)c3c(C)cc(C(F)F)nc3C)CC1)CC2 [II-4] | – | – | 10.8 | – |
| CCCCC1CN(C[C@H]2CC[C@H](OCC)CC2)C(=O)OC12CCN(C1(C)CCN(C(=O)c3c(C)ncnc3C)CC1)CC2 (stereo partly drawn) [Compound I-7, 5-Butyl-9-[1-(4,6-dimethyl-pyrimidine-5-carbonyl)-4-methyl-piperidin-4-yl]-3-(trans-4-ethoxy-cyclohexylmethyl)-1-oxa-3,9-diaza-spiro[5.5]undecan-2-one] | – | – | – | melting point: 188.3 to 189.7 °C |
| CCCC[C@H]1CN(C[C@H]2C[C@H]3CC[C@@H](C2)N3C(=O)OC)C(=O)OC12CCN(C1(C)CCN(C(=O)c3c(C)ncnc3C)CC1)CC2 [III-22] | 3 | 2.2 | 21.2 | – |
| B1 | – | – | – | HIV entry into the cells (HIV): block HIV entry into the cells |
